# Patent US9234025B2, “Extracellular allosteric inhibitor binding domain from a tyrosine kinase receptor” (SANOFI, priority 2009, dated 2016)
# Tests used:
# FGFR1 = biological target: T1, FGFR1 (Homo sapiens, UniProt P11362); experiment: AlexaFluor488-FGF2 binding on FGFR1-transfected 300-19 cells (flow cytometry); conditions: SSR 300 nM; FGF2 10 ng/ml; murine pre-B 300-19 cells
# T1 construct: V5/His (encoded by the vector); expressed in transfected cells; host or cells: murine pre-B 300-19 cells
# T1 sequence (P11362 22-822): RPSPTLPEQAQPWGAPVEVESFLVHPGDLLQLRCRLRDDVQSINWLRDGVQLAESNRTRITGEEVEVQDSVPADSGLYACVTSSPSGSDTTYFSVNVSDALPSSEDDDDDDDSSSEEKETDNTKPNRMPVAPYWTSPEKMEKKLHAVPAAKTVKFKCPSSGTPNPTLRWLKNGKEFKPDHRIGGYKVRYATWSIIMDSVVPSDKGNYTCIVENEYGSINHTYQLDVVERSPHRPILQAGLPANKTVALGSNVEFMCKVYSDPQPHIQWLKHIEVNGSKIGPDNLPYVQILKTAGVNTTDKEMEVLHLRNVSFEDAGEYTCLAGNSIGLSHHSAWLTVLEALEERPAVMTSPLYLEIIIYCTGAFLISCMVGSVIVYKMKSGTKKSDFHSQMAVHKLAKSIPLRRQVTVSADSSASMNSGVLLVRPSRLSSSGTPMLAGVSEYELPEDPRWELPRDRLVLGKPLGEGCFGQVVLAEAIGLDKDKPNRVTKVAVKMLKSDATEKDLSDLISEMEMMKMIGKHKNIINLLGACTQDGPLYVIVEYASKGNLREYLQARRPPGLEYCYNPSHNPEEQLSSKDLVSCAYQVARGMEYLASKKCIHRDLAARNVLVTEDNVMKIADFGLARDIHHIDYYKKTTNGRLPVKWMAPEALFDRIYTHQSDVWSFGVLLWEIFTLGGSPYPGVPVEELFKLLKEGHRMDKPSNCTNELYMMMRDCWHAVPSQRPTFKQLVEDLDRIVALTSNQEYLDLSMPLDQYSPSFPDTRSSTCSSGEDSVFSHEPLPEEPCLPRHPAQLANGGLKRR
# Experimental: FGF2 was labeled with Alexa Fluor 488 C5-maleimide (Invitrogen, A10254) following purchaser recommendations.
# This AF488-FGF2 was used at 10 ng/ml in binding experiments on murine pre-B 300-19 cells transfected with FGFR1 or FGFR4 constructs in pEF6-V5/His Topo plasmids (Invitrogen). SSR (300 nM final) was pre-incubating 20 min with cells in RPMI 1640 (Invitrogen, 32404-014) with 10% FCS (Hyclone, SH30070.03), 2 mM glutamine, MEM non-essential amino-acid 1× (Gibco, 11140-035), MEM sodium pyruvate 1× (Gibco, 11360-039) and […] monothioglycerol (Sigma, M6145) at 4° C. under 150 rpm agitation. Then, FGF2 (10 ng/ml final) is added for 30 min and binding is measured using a FACS Calibur flow cytometer (Beckton Dickinson). Fluorescence median for each condition is also analysed.
# FGFR2^∂23-Y328D = FGFR2^∂23-Y328D (Homo sapiens, UniProt P21802, Y328D); experiment: FTIR measurement, FGFR2 Y328D mutant; parameters: FGFR2^∂23 (consisting of domain D2 and 3); made in house; conditions: 100 μM SSR
# Sequence of FGFR2^∂23-Y328D (P21802 148-366 Y328D limits assumed): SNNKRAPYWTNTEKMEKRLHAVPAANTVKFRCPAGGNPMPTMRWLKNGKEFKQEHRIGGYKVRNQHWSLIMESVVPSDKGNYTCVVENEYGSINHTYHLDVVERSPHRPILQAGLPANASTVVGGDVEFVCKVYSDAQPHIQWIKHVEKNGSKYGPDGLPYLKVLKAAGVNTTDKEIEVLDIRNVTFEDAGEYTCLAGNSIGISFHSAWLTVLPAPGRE
# Experimental: Fourier transform infrared measurements were performed using a Bruker Tensor 37 FT-IR spectrometer equipped with an AquaSpec flowcell. The sample compartment was thermostatted to 25° C., 100 spectra were averaged for a good signal to noise ratio. Proteins were purified as described above. Immediately after the gelfiltration, the proteins were dialysed overnight in the same preparation of buffer (10 mM Hepes pH 7.2, 150 mM NaCl) in the presence or absence of SSR. Dialysis buffer samples were used to substract background signal. The analysis was performed using the OPUS software package, provided by Bruker. Interpretation of the results was performed as described {Barth, 2002 #60}.
# We next explored whether SSR bound to amino acid residues that form part of the orthosteric site in D3 or to an alternative allosteric site. Initially, we used the molecular docking algorithms of the software packages MOLEGRO, Autodock and YASARA and available crystallographic data. […] These findings are consistent with a model whereby SSR binds to an allosteric site formed by a hydrophobic pocket near the orthosteric ligand binding site, and in which residue Tyr^328 seems to be critical for mediating the interaction between SSR to FGFR2. We also analyzed the FTIR spectrum of the aforementioned mutated FGFR2 fragments.
# FGFR1^∂3 = biological target: T2, FGFR1^∂3 (Homo sapiens, UniProt P11362); experiment: 1D-NMR, FGFR1 domain D3 fragment; assay type: binding
# T2 construct: a fragment containing only domain D3 (FGFR1^∂3)
# T2 sequence (P11362 255-357 limits assumed): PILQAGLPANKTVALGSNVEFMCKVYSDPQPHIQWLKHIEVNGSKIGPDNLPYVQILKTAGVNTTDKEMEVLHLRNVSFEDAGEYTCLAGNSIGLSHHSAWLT
# Experimental: All STD- and 1D-NMR experiments were carried out on a BRUKER three-channel DRX600 and on a BRUKER four-channel DRX800 spectrometer at the standard temperature of 298 K and were referenced to the internal standard 3-Trimethyl-2,2,3,3-tetradeuteropropionate-sodium salt (TSP). Typically, NMR samples contained 0.5 ml of protein ([…]) in 25 mM Tris/HCl, pH 8.0, 200 mM NaCl, 25 mM L-arginine, 2 mM EDTA, 0.02% azide (in 95% H2O/5% D2O). For protein ligand 1D STD NMR measurements spectra were recorded with 1 mM ligand SSR128129E (100 mM DMSO stock solution) and […] protein with weak 2s RF irradiation on separated protein methyl resonances. Water suppression was carried out using the standard Bruker WATERGATE 3-9-19 sequence. NMR data were processed using the Bruker program xwin NMR software.
# Since SSR was a multi-FGFR inhibitor, we used polypeptide fragments of the various (human) FGFR subtypes. […] We then used ECD fragments of FGFRs to map the binding site of SSR to one of the three Ig-domains. […] In fact, FGFR1^∂3 and FGFR1^∂123 give identical signals (broad line) meaning that we obtained same affinity for these proteins while FGFR1^∂12 and FGFR1^∂2 cause sharp lines (FIG. 11B).
# HUVEC [1] = experiment: cell migration with various growth factors (modified Boyden chamber); assay type: cell-based, human; conditions: SSR 1 μM
# Experimental: Cell migration was assessed by a modified Boyden chamber assay, by using 24-well inserts containing 8 μm pore size transwell permeable supports with a polycarbonate membrane (Costar, Corning Inc.). Exponentially growing cells were starved in 0.2% FBS containing medium for 16 hours and resuspended at 5×10^5 cells/ml in the same low serum medium. 100 μl of the cell suspension were seeded in the upper chamber, while chemoattractants and/or SSR were placed in the lower chamber. Chemoattractants tested include: human PDGF-BB, IGF-I, PIGF, EGF, all at 100 ng/ml, in the presence or absence of SSR (1 μM). 10% FBS containing medium was used a positive control. After 6 hours incubation at 37° C., cells on the upper side of the membrane were scraped using a cotton swab, while migrated cells on the lower surface were fixed with 1% paraformaldehyde in PBS and nuclei stained with DAPI for quantification using a fluorescent microsope. Quanitifcation is performed by making 5 random images at a magnification of 10× and by counting the number of nuclei.
# FGFR3^∂23 = biological target: T3, FGFR3^∂23 (Homo sapiens, UniProt P22607); experiment: isothermal titration calorimetry (ITC), FGFR3; assay type: binding
# T3 construct: two ECD fragments, FGFR2^∂23 (consisting of domain D2 and 3) and FGFR3^∂23; made in house
# T3 sequence (P22607 145-365): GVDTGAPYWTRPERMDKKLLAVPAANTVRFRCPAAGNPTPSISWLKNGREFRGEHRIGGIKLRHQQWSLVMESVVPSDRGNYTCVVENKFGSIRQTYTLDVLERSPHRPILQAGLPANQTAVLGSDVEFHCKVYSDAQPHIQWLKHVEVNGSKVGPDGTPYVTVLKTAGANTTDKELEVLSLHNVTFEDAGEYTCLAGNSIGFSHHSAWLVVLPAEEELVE
# HUVEC [2] = experiment: HUVEC in vitro angiogenesis; assay type: cell-based, human; conditions: low nanomolar range
# Experimental: Collagen/matrigel gels are prepared by distributing in each well of a chamberslide (Biocoat Cellware collagen, Type I, 8-well culturesides: Becton dickinson 354630), 160 μl of 1/6 diluted matrigel (Growth factor reduced Matrigel: Becton dickinson 356230) in collagen I (rat Tail collagene, type I: Becton dickinson 354236). Polymerisation occurs at 37° C. for 1 h. Then, 15.10^3 HUVEC are added per well in 400 μl EBM medium (Clonetics C3121)+2% FCS+hEGF 10 μg/ml. Endothelial cells are stimulated with 10 ng/ml of FGF2 (R&D, 133-FB-025), FGF4 (R&D, 235-F4-025) or FGF19 (R&D, 969-FG-025) for 24 h at 37° C. in a CO2 chamber. Then, total length of pseudotubules is quantified using a bioimaging system (Imagenia Biocom, Courtaboeuf, France).
# FGFR1 (PAE-FGFR1) = biological target: T4, FGFR1 (PAE-FGFR1) (Homo sapiens, UniProt P11362); experiment: I125-FGF2 binding assay on PAE-FGFR1 cells; conditions: porcine aortic endothelial cells overexpressing FGFR1; SSR even at high μM concentrations
# T4 construct: or the expression of the entire intact receptor in its native environment; expressed in transfected cells; host or cells: porcine aortic endothelial cells (PAE)
# T4 sequence (P11362 22-822): as the sequence (P11362 22-822) above
compound,measurement,setting,value
COc1c(C)c(C(=O)c2ccc(N)c(C(=O)[O-])c2)n2ccccc12.[Na+] [SSR],competition with AlexaFluor488-labelled FGF2 binding to FGFR1,FGFR1,not able to compete this binding
same,change of FTIR spectrum (conformational change),FGFR2^∂23-Y328D,failed to induce this change
same,binding to FGFR1 domain D3 fragment,FGFR1^∂3,identified a binding site for SSR
same,cellular response (migration) induced by EGF,HUVEC [1]; EGF 100 ng/ml,did not affect
same,cellular response (migration) induced by IGF,HUVEC [1]; IGF-I 100 ng/ml,did not affect
same,cellular response (migration) induced by PDGF-BB,HUVEC [1]; PDGF-BB 100 ng/ml,did not affect
same,cellular response (migration) induced by PIGF,HUVEC [1]; PIGF 100 ng/ml,did not affect
same,binding to FGFR3,FGFR3^∂23,bound
same,FGF2-induced HUVEC in vitro angiogenesis,HUVEC [2],blocks FGF2-induced HUVEC angiogenesis
same,inhibition of I^125-FGF2 binding to its receptor,FGFR1 (PAE-FGFR1),unable to inhibit I^125-FGF2 binding
